Test: xn = mol fraction of the nth substance listed
Conditions: for surface tension liquid-gas: Pendant drop shape; for mass density: 101 kPa, Liquid

CC(=O)OCC(C)C [2-methylpropyl ethanoate] + Cc1ccc(C)c(C)c1
Conditions	mass density [kg/m3]	surface tension liquid-gas [mN/m]
298.15 K, x1 = 0.0494	871.36	28.85
298.15 K, x1 = 0.0992	871.02	28.38
298.15 K, x1 = 0.1493	870.68	27.89
298.15 K, x1 = 0.2002	870.35	27.4
298.15 K, x1 = 0.2498	870.03	26.98
298.15 K, x1 = 0.2989	869.71	26.61
298.15 K, x1 = 0.3495	869.39	26.25
298.15 K, x1 = 0.3997	869.08	25.92
298.15 K, x1 = 0.4505	868.77	25.59
298.15 K, x1 = 0.4991	868.48	25.3
298.15 K, x1 = 0.5504	868.19	25.03
298.15 K, x1 = 0.6	867.92	24.78
298.15 K, x1 = 0.6496	867.65	24.54
298.15 K, x1 = 0.7006	867.37	24.32
298.15 K, x1 = 0.75	867.13	24.13
298.15 K, x1 = 0.8002	866.88	23.91
298.15 K, x1 = 0.8499	866.67	23.74
298.15 K, x1 = 0.9006	866.45	23.55
298.15 K, x1 = 0.9477	866.27	23.36
298.15 K, x1 = 1	866.06	23.15
308.15 K, x1 = 0.0495	863.22	27.75
308.15 K, x1 = 0.0992	862.76	27.26
308.15 K, x1 = 0.149	862.3	26.78
308.15 K, x1 = 0.1998	861.84	26.31
308.15 K, x1 = 0.25	861.39	25.89
308.15 K, x1 = 0.2995	860.95	25.52
308.15 K, x1 = 0.3497	860.51	25.17
308.15 K, x1 = 0.4004	860.07	24.83
308.15 K, x1 = 0.4501	859.64	24.52
308.15 K, x1 = 0.4995	859.23	24.21
308.15 K, x1 = 0.5505	858.81	23.94
308.15 K, x1 = 0.5994	858.42	23.69
308.15 K, x1 = 0.65	858.02	23.48
308.15 K, x1 = 0.6987	857.63	23.25
308.15 K, x1 = 0.7505	857.25	23.04
308.15 K, x1 = 0.7986	856.89	22.82
308.15 K, x1 = 0.8497	856.54	22.67
308.15 K, x1 = 0.8999	856.19	22.48
308.15 K, x1 = 0.9491	855.87	22.32
308.15 K, x1 = 1	855.51	22.16
313.15 K, x1 = 0.0506	859.06	27.18
313.15 K, x1 = 0.1002	858.55	26.67
313.15 K, x1 = 0.1499	858.03	26.15
313.15 K, x1 = 0.2001	857.52	25.7
313.15 K, x1 = 0.2505	857	25.28
313.15 K, x1 = 0.3001	856.51	24.91
313.15 K, x1 = 0.3502	856.01	24.59
313.15 K, x1 = 0.3995	855.53	24.26
313.15 K, x1 = 0.4501	855.03	23.95
313.15 K, x1 = 0.5001	854.56	23.62
313.15 K, x1 = 0.5503	854.08	23.36
313.15 K, x1 = 0.6007	853.61	23.08
313.15 K, x1 = 0.6492	853.16	22.9
313.15 K, x1 = 0.6997	852.71	22.65
313.15 K, x1 = 0.75	852.27	22.46
313.15 K, x1 = 0.801	851.82	22.2
313.15 K, x1 = 0.848	851.43	22.09
313.15 K, x1 = 0.8998	851.01	21.89
313.15 K, x1 = 0.9498	850.6	21.77
313.15 K, x1 = 1	850.16	21.64

Cc1cc(C)cc(C)c1 [1,3,5-trimethylbenzene] + CC(=O)OC(C)C
Conditions	mass density [kg/m3]	surface tension liquid-gas [mN/m]
298.15 K, x2 = 0	861.12	28.05
298.15 K, x2 = 0.0495	861.03	27.68
298.15 K, x2 = 0.1008	861.01	27.28
298.15 K, x2 = 0.1504	860.99	26.92
298.15 K, x2 = 0.199	861.02	26.52
298.15 K, x2 = 0.2514	861.07	26.15
298.15 K, x2 = 0.2996	861.13	25.79
298.15 K, x2 = 0.351	861.25	25.42
298.15 K, x2 = 0.4009	861.36	25.07
298.15 K, x2 = 0.4502	861.53	24.71
298.15 K, x2 = 0.5002	861.71	24.37
298.15 K, x2 = 0.5497	861.96	24.05
298.15 K, x2 = 0.6001	862.22	23.72
298.15 K, x2 = 0.6502	862.53	23.42
298.15 K, x2 = 0.7003	862.88	23.14
298.15 K, x2 = 0.7496	863.29	22.88
298.15 K, x2 = 0.7987	863.73	22.65
298.15 K, x2 = 0.8498	864.28	22.46
298.15 K, x2 = 0.8998	864.85	22.28
298.15 K, x2 = 0.9505	865.52	22.06
308.15 K, x2 = 0	852.94	27.21
308.15 K, x2 = 0.0501	852.69	26.78
308.15 K, x2 = 0.0993	852.53	26.37
308.15 K, x2 = 0.1514	852.38	25.94
308.15 K, x2 = 0.2	852.27	25.55
308.15 K, x2 = 0.2514	852.16	25.16
308.15 K, x2 = 0.3018	852.09	24.8
308.15 K, x2 = 0.353	852.03	24.42
308.15 K, x2 = 0.3991	852.01	24.06
308.15 K, x2 = 0.4503	852	23.69
308.15 K, x2 = 0.4993	852.03	23.35
308.15 K, x2 = 0.5492	852.08	23.01
308.15 K, x2 = 0.6	852.18	22.67
308.15 K, x2 = 0.65	852.3	22.36
308.15 K, x2 = 0.7003	852.47	22.05
308.15 K, x2 = 0.7499	852.68	21.79
308.15 K, x2 = 0.7993	852.92	21.52
308.15 K, x2 = 0.8488	853.23	21.31
308.15 K, x2 = 0.9004	853.61	21.14
308.15 K, x2 = 0.9506	854.03	20.92
313.15 K, x2 = 0	848.82	26.78
313.15 K, x2 = 0.0498	848.53	26.33
313.15 K, x2 = 0.1001	848.29	25.9
313.15 K, x2 = 0.1495	848.08	25.45
313.15 K, x2 = 0.2006	847.88	25.06
313.15 K, x2 = 0.25	847.71	24.67
313.15 K, x2 = 0.3005	847.55	24.28
313.15 K, x2 = 0.3497	847.43	23.9
313.15 K, x2 = 0.3998	847.3	23.54
313.15 K, x2 = 0.4508	847.22	23.18
313.15 K, x2 = 0.4998	847.16	22.82
313.15 K, x2 = 0.5496	847.13	22.49
313.15 K, x2 = 0.6007	847.12	22.13
313.15 K, x2 = 0.6504	847.16	21.83
313.15 K, x2 = 0.7	847.23	21.5
313.15 K, x2 = 0.7495	847.33	21.22
313.15 K, x2 = 0.7993	847.48	20.96
313.15 K, x2 = 0.8507	847.68	20.73
313.15 K, x2 = 0.9008	847.93	20.52
313.15 K, x2 = 0.9504	848.25	20.36

— the NIST ThermoML archive (doi:10.1021/je800046k)
